The values below are quoted from earlier work in paper PMC10364322, “Evaluation of chronic drug-induced electrophysiological and cytotoxic effects using human-induced pluripotent stem cell-derived cardiomyocytes (hiPSC-CMs)” (Frontiers in Pharmacology, 2023).

One data set has as its system cynomolgus monkeys. Set-up: method as in Gill et al., 2017. The following applies: ref Gill et al., 2017; cited from earlier work.
Data set [1] relates to human embryonic stem cell-derived cardiomyocytes. Further details: method as in Hihara et al., 2014. The following applies: 10 µM; 24 h-treatment; 4% in vehicle-treated wells; ref Hihara et al., 2014; cited from earlier work.

Consider `COc1nc(N)nc2c1ncn2[C@@H]1O[C@H](COP(=O)(N[C@@H](C)C(=O)OCC(C)(C)C)Oc2cccc3ccccc23)[C@@H](O)[C@@]1(C)O` (some centres unmarked) [BMS-986094], for which, in the data set with cynomolgus monkeys, the “estimated dose that caused cardiotoxicity” value is 3 µM.

As for `N=C(N)c1ccc(OCCCCCOc2ccc(C(=N)N)cc2)cc1` [Pentamidine], the FPDc prolongation in data set [1] was 62%.
